Data reported in US4038388A, “Antimicrobial compositions” (Paterson Zochonis & Company Limited, priority 1976, dated 1977).

Experiments:
Experiment in all cases: Antibiotic Sensitivity
Format in all cases: cell-based
Staph. albus 474 = test system: Staph. albus 474; also: key: R: resistant; S: sensitive; SS: slightly sensitive
Staph. albus 476 = test system: Staph. albus 476; also: key: R: resistant; S: sensitive; SS: slightly sensitive
Staph. albus 473 = test system: Staph. albus 473; also: key: R: resistant; S: sensitive; SS: slightly sensitive
Staph. aureus 20477 = test system: Staph. aureus 20477; also: key: R: resistant; S: sensitive; SS: slightly sensitive
Coliform 608 = test system: Coliform 608; also: key: R: resistant; S: sensitive; SS: slightly sensitive
Pr. vulgaris 4635 = test system: Pr. vulgaris 4635; also: key: R: resistant; S: sensitive; SS: slightly sensitive
E. coli 566 = test system: E. coli 566; also: key: R: resistant; S: sensitive; SS: slightly sensitive
Strep. faecalia 559 = test system: Strep. faecalia 559; also: key: R: resistant; S: sensitive; SS: slightly sensitive
Candida albicans = test system: Candida albicans; also: key: R: resistant; S: sensitive; SS: slightly sensitive
Strep. faecalis 20190 = test system: Strep. faecalis 20190; also: key: R: resistant; S: sensitive; SS: slightly sensitive
Coliform 518 = test system: Coliform 518; also: key: R: resistant; S: sensitive; SS: slightly sensitive
Coliform 578 = test system: Coliform 578; also: key: R: resistant; S: sensitive; SS: slightly sensitive
Kleb, acrogenes 8172 = test system: Kleb, acrogenes 8172; also: key: R: resistant; S: sensitive; SS: slightly sensitive
Pr. miribilis 25702 = test system: Pr. miribilis 25702; also: key: R: resistant; S: sensitive; SS: slightly sensitive
Staph. aureus 590 = test system: Staph. aureus 590; also: key: R: resistant; S: sensitive; SS: slightly sensitive
Pr. rettgeri 7475 = test system: Pr. rettgeri 7475; also: key: R: resistant; S: sensitive; SS: slightly sensitive
E. coli 026 = test system: E. coli 026; also: key: R: resistant; S: sensitive; SS: slightly sensitive
Proteus 20531 = test system: Proteus 20531
Staph. pyogenes = test system: Staph. pyogenes; also: key: R: resistant; S: sensitive; SS: slightly sensitive
Ps. aeruginosa 1999 = test system: Ps. aeruginosa 1999; also: key: R: resistant; S: sensitive; SS: slightly sensitive
Proteus 20522 = test system: Proteus 20522
Pr. mirabilis 25942 = test system: Pr. mirabilis 25942
Kleb. aerogenes 22352 = test system: Kleb. aerogenes 22352; also: key: R: resistant; S: sensitive; SS: slightly sensitive
Ps. multivorans BS = test system: Ps. multivorans BS; also: key: R: resistant; S: sensitive; SS: slightly sensitive
Proteus 371 = test system: Proteus 371
Staph. aureus 7447 = test system: Staph. aureus 7447; also: key: R: resistant; S: sensitive; SS: slightly sensitive
E. coli 9395 = test system: E. coli 9395; also: key: R: resistant; S: sensitive; SS: slightly sensitive
E. coli 559 = test system: E. coli 559; also: key: R: resistant; S: sensitive; SS: slightly sensitive
Proteus 20523 = test system: Proteus 20523
E. coli 604 = test system: E. coli 604; also: key: R: resistant; S: sensitive; SS: slightly sensitive
Serratia marcescens = test system: Serratia marcescens; also: key: R: resistant; S: sensitive; SS: slightly sensitive
Pr. mirabilis 5887 = test system: Pr. mirabilis 5887
Ps. multivorans MB = test system: Ps. multivorans MB; also: key: R: resistant; S: sensitive; SS: slightly sensitive
Staph. albus 479 = test system: Staph. albus 479; also: key: R: resistant; S: sensitive; SS: slightly sensitive
Ps. aeruginosa 5267 = test system: Ps. aeruginosa 5267; also: key: R: resistant; S: sensitive; SS: slightly sensitive
Proteus 20029 = test system: Proteus 20029

Measured: Antibiotic Sensitivity

Oc1ccc(Cl)c2cccnc12 [CHQ, 5-chloro-8-hydroxyquinoline]
R: Ps. aeruginosa 1999 | Ps. aeruginosa 5267
S: all other assays above

CN(C)[C@@H]1C(=O)C(C(N)=O)=C(O)[C@@]2(O)C(=O)C3=C(O)c4c(O)cccc4[C@@](C)(O)[C@H]3C[C@@H]12 [Tetracycline, tetracycline]
R: Staph. albus 474 | Staph. albus 476 | Staph. albus 473 | Staph. aureus 20477 | Strep. faecalia 559 | Candida albicans | Strep. faecalis 20190 | Staph. aureus 590 | E. coli 026 | Staph. pyogenes | Staph. albus 479
not listed: Proteus 20531 | Proteus 20522 | Pr. mirabilis 25942 | Proteus 371 | Proteus 20523 | Pr. mirabilis 5887 | Proteus 20029
S: all other assays above
